This is an account of results in patent publication US20230210770A1, “TOPICAL OPHTHALMOLOGICAL COMPOSITIONS AND METHODS FOR TREATING ABNORMAL ANGIOGENESIS” (ADS THERAPEUTICS LLC, priority 2020, published 2023).

Converted amounts (≈) assume the structure as drawn.

For data set [1] the following is noted: cited from earlier work.
A short description of data set [2]: Solubility of nintedanib in a representative water-based emulsion system. The settings on record: for solubility: water-based emulsion, aqueous with cosolvent or surfactant or cyclodextrin, Nintedanib solubility. The class given is physicochemical.
Data set [3] relates to rabbit glaucoma filtration surgery model. Nature of the data set: Rabbit glaucoma filtration surgery model. The class given is in vivo, New Zealand White rabbits. The settings on record: vs vehicle.
The nature of data set [4]: Solubility in water (reported). The class given is physicochemical.
Data set [5] in a line: Solubility of nintedanib in various solubilizers. The class given is physicochemical. The method, then: Tare 1.5 mL Eppendorf tube 2. […] Add solubilizer and record weight 4. Add water pH 5 (except F3 & F4) and record weight 5. Beadbeater mix for 120 seconds 6. Place on rotating mixer for overnight at ambient temperature 7. Filter through 0.2 μm SPIN-X centrifuge filter 8. Measure pH of filtrate 9. Assay filtrate using CBT-001 standard solution [table]

Data set [6] in a line: Regorafenib concentration and degradation in F6H8 suspension by HPLC. The class given is physicochemical. As for the experimental part: The Suspension was homogenized by stirring at room temperature for 15 minutes. […] The observed fluctuation was most likely due to inhomogeneity of the sample after manual shaking of the suspension.
[…] were injected into an Agilent 1100 HPLC system (Agilent, Waldbronn, Germany), and samples were run on a heated (40° C.) Symmetry C18 column (150×4.6 mm-3.5 um particle size, Waters, Eschborn, Germany) applying a flow rate of 1 ml/min. The mobile phase consisted of a mixture of potassium phosphate buffer pH 2.4 (A) and acetonitrile/ethanol (6/4) (B). The following gradient was applied: minute 0: A, 60%/B, 40%: minute 12: A, 20%/B, 80%: minute 16: A, 20%/B, 80%: minute 16.5: A, 60%/B, 40%: minute 20: A, 60%/B, 40%.

Setting [7] is: water-based emulsion of castor oil, polysorbate 80 and polyoxyl-35 castor oil.

With `CNC(=O)c1ccccc1Sc1ccc2c(/C=C/c3ccccn3)n[nH]c2c1` [Axitinib, axitinib], in data set [1] (water at neutral pH), the solubility in water is 0.2 mg/mL (≈ 0.517 mM).
For the compound `COC(=O)c1ccc2c(c1)NC(=O)/C2=C(\Nc1ccc(N(C)C(=O)CN2CCN(C)CC2)cc1)c1ccccc1` [Nintedanib, nintedanib], in data set [1] (water), the “reported solubility in water” value is “less than 0.01 mg/mL”. Besides, in data set [2] (setting [7]), the “nintedanib dissolved by the emulsion system” value was in the range of 3 to 5 mg/mL. Also, the “ophthalmic emulsion concentration of nintedanib” value in data set [2] (setting [7]) is listed as 0.3%-0.5. The solubility in data set [2] (emulsion F70 lot 1: castor oil 1, polysorbate 80 1, polyoxyl-35 castor oil 2, water 95) came out at 5000 µg/mL (≈ 9.27 mM); in data set [2] (emulsion F70 lot 2: castor oil 1, polysorbate 80 1, polyoxyl-35 castor oil 2, water 95), 3400 µg/mL (≈ 6.3 mM). For the same compound, the fibroblast density entry in data set [3] (group 3: 0.3% emulsion BID minus Day 7-Day 30, rabbit) is recorded as “trend of reduction not statistically significant”; in data set [3] (group 4: 0.3% emulsion BID Day 1-Day 30, rabbit) it was “significant reduction”. For the same compound, in data set [4], the “reported solubility in water, as percent” value is on record as below 0.001%. In addition, the Nintedanib solubility was determined as 0.01 mg/g in data set [5] (solubilizer BZA, filtrate pH 5.6); 0.20 mg/g in data set [5] (solubilizer BZK, filtrate pH 5.6); 0.37 mg/g in data set [5] (solubilizer Castor oil); 0.01 mg/g in data set [5] (solubilizer EtOH, filtrate pH 6.1); 0.00 mg/g in data set [5] (solubilizer Mineral oil); 0.17 mg/g in data set [5] (solubilizer PEG 400, filtrate pH 5.6). Besides, the Nintedanib solubility in data set [5] (solubilizer PEG 8000, filtrate pH 6.0) was 0.01 mg/g; in data set [5] (solubilizer PG, filtrate pH 6.0), 0.01 mg/g; in data set [5] (solubilizer PLXMR 188, filtrate pH 6.5), 0.01 mg/g; in data set [5] (solubilizer PLXMR 407, filtrate pH 6.3), 0.01 mg/g; in data set [5] (solubilizer polysorbate 20, filtrate pH 6.6), 0.06 mg/g; in data set [5] (solubilizer polysorbate 80, filtrate pH 6.7), 0.25 mg/g.
For `CNC(=O)c1cc(Oc2ccc(NC(=O)Nc3ccc(Cl)c(C(F)(F)F)c3)c(F)c2)ccn1` [Regorafenib, regorafenib], the “degradation products in HPLC chromatograms” value in data set [6] (400 mg micronized regorafenib monohydrate suspended in 20 ml F6H8) is reported as “No unidentified degradation product was observed”. In addition, in data set [6] (400 mg micronized regorafenib monohydrate suspended in 20 ml F6H8, HPLC), the “Measured regorafenib concentration, % of theoretical concentration” value is 95.4-99.1%.
